Data taken from patent publication US10945685B2, “System and method for normalizing standardized uptake values in brain positron emission tomography (PET) images” (New York University, priority 2018, dated 2021).
“Also recorded” adds a separate entry of the source.

Columns and labels:
Assay type in all cases: in vivo, human
[1] = system: tau; assay: AD-NL classification from tau PET: ROC AUC and AD-NL ratio of PBP; conditions: temporal lobe
[2] = Off-target binding observed on PET images; conditions: observed on PET image
Procedure: (§1) PET imaging was performed using an Eminence STARGATE PET scanner (Shimadzu, Kyoto, Japan). After intravenous injection of ^18F-THK5351 (185 MBq), dynamic PET images were obtained for 60 min. acquisition matrix is 128×128×79 and voxels size is 2×2×2.6 mm. ^18F-THK5351 was synthesized. MRI was performed on all participants. T1 weighted MR images were obtained using a SIGNA 1.5-Tesla machine (General Electric, Milwaukee, Wis.). In T1-weighted MRI, a 3D volumetric acquisition of a T1-weighted gradient echo sequence produced a gapless series of thin axial sections by using a vascular TOF SPGR sequence (echo time/repetition time, 2.4/50 ms; flip angle, 45°; acquisition matrix, 256×256; 1 excitation; field of view, 22 cm; slice thickness, 2.0 mm).
AV-1451 data were downloaded from ADNI with series description “AV1451 Coreg, Avg, Std Img and Vox Siz, Uniform Resolution”. An intravenous injection of 10 mCi ^18F-AV-1451 (370 MBq) is followed by a saline flush. At approximately 75 minutes following injection, a continuous 30-minute brain scan (6 frames of 5-minute duration) was performed after a CT or transmission scan for attenuation correction. PET imaging was performed using GEMINI TF TOF 16 (Philips Medical Systems), with 6 frames; acquisition matrix 128×128×90; pixel spacing 2×2 mm; slice thickness 2 mm.
Standardized uptake value (SUV) images were obtained by normalizing tissue radioactivity concentration by injected dose and bodyweight. Estimates of tau deposition were determined for THK53151 with the 40-60 min SUV and for AV1451 with for the 80-100 min SUV. Standard SUVR was generated by using cerebellar cortex as reference. To control the variation of SUVR measures in THK5351 and AV1451 PET caused by the off-target binding in reference region, each subject's SUV images were first transferred into standardized SUVP images, using the Peak-alignment method (as described above). […]

[3] = system: tau; assay: Tau PET tracer binding, SUVP peak-alignment method and positive binding percentage (PBP), AD patients and NL subjects; conditions: for PBP of SUVP, Basal ganglia / PBP of SUVP, Cerebellar GM / PBP of SUVP, Cerebral GM / PBP of SUVP, Cerebral WM / PBP of SUVP, Frontal cortex / PBP of SUVP, Occipital cortex / PBP of SUVP, Partial cortex / PBP of SUVP, Temporal cortex: SUVP cutoff 1.5; for PBP of SUVP, Basal ganglia / PBP of SUVP, Cerebellar GM / PBP of SUVP, Cerebral GM / PBP of SUVP, Cerebral WM / PBP of SUVP, Frontal cortex / PBP of SUVP, Occipital cortex / PBP of SUVP, Partial cortex / PBP of SUVP, Temporal cortex / mean SUVP in cerebellum GM: mean (SD)
Text: The set of standardized uptake values (with repetition) for all voxels within brain region r and subject s may be represented as SUV(r,s). Each of the values of SUV(r,s) may be normalized using a SUVP method represented as follows: SUVP(r,s)=(SUV(r,s)−M)/S, where M corresponds to a peak of the number of counts of emissions events recorded across all of the voxels of the PET image data, and S corresponds to a spread of all of the different counts of emissions events recorded across all of the voxels of the PET image data. Each subject's SUV image may be normalized and transferred into a standardized SUVP, using the standardized uptake value peak-alignment (SUVP) method described herein.
In one particular example, M is the sample mode of rounded SUV(r,s), and S is the standard deviation of SUV(r,s). Furthermore, the peak (M) values, in particular the sample mode of rounded SUV(r,s) may be used as a reference region to normalize raw SUV data using methods similar to SUVR.
In addition, as shown in step 112, a SUVP method may also be used to analyze regional percentages of positive binding in the PET data. Positive binding may be defined based on a predetermined cutoff value. The predetermined cutoff value may be any suitable value that is well above background signal. In some embodiments, the predetermined cutoff value may be manually set by a user. One important advantage of SUVP is that it standardized range of whole brain SUV into a generally fixed range regardless of tracer or disease condition, allowing universal cutoff for different tracers (e.g., 1.5 for all tracers), while SUVR cutoffs are tracer-dependent and varies across different studies (e.g., 1.5 for THK5315 and 1.2 for AV1451). Additionally, as discussed further below in Example I, when SUVP was calculated by using a standard deviation (SD), 1.5 times a SUVP cutoff value is equivalent to 1.5 times SD, which signifies a statistic meaningful way to distinguish and identify positive voxels. The percentage of positive binding (PBP) may be obtained by:
Subjects come from two sources. 18 subjects (9 AD patients, and 9 healthy elderly study participants) underwent ^18F-THK5351 PET scans from the memory clinic of Tohoku University Hospital. ^18F-AV-1451 scans were obtained from the ADNI (Alzheimer's Disease Neuroimaging Initiative) database (adni.loni.usc.edu). 32 Subjects (20 NL and 12 AD) with ^18F-AV-1451 were selected from ADNI, that were matched to the age and MMSE in participants of the THK5351 group.
as §1
AV-1451 data were downloaded from ADNI with series description “AV1451 Coreg, Avg, Std Img and Vox Siz, Uniform Resolution”. An intravenous injection of 10 mCi ^18F-AV-1451 (370 MBq) is followed by a saline flush. At approximately 75 minutes following injection, a continuous 30-minute brain scan (6 frames of 5-minute duration) was performed after a CT or transmission scan for attenuation correction. PET imaging was performed using GEMINI TF TOF 16 (Philips Medical Systems), with 6 frames; acquisition matrix 128×128×90; pixel spacing 2×2 mm; slice thickness 2 mm. […]

| Compound | AD-NL ratio (R), SUVR Mean [1] | regions with off-target binding [2] | PBP of SUVP, Basal ganglia ([3]; AD patients) | PBP of SUVP, Cerebellar GM ([3]; AD patients) | PBP of SUVP, Cerebral GM ([3]; AD patients) | PBP of SUVP, Cerebral WM ([3]; AD patients) | PBP of SUVP, Frontal cortex ([3]; AD patients) | PBP of SUVP, Occipital cortex ([3]; AD patients) | PBP of SUVP, Partial cortex ([3]; AD patients) | PBP of SUVP, Temporal cortex ([3]; AD patients) | mean SUVP in cerebellum GM ([3]; AD patients) | PBP of SUVP, Basal ganglia ([3]; NL subjects) | PBP of SUVP, Cerebellar GM ([3]; NL subjects) | PBP of SUVP, Cerebral GM ([3]; NL subjects) | PBP of SUVP, Cerebral WM ([3]; NL subjects) | PBP of SUVP, Frontal cortex ([3]; NL subjects) | PBP of SUVP, Occipital cortex ([3]; NL subjects) | PBP of SUVP, Partial cortex ([3]; NL subjects) | PBP of SUVP, Temporal cortex ([3]; NL subjects) | mean SUVP in cerebellum GM ([3]; NL subjects) | further results |
| --- | --- | --- | --- | --- | --- | --- | --- | --- | --- | --- | --- | --- | --- | --- | --- | --- | --- | --- | --- | --- | --- |
| CNc1ccc(-c2ccc3cc(OC[C@H](O)CF)ccc3n2)cn1 [THK5351] | 1.18 | ponds and Amygdala; also recorded: cerebral white matter and basal ganglia region | 61.93(7.25) | .07(.10) | 5.56(1.47) | 8.70(3.24) | 1.25(0.86)^ | 1.73(2.79)^ | 2.16(3.33)^+ | 17.94(5.15)*^+ | −1.24(0.24) | 81.24(8.55)^++ | .10(.14) | 3.81(2.19) | 7.06(1.55) | 2.37(1.25)^+ | 0.05(0.09) | 0.17(0.21) | 6.93(4.78) | −1.21(0.28) | decrease of cerebellum GM SUVP in AD comparing to NL ([3]; AD vs NL): 2.5% |
| [18F]c1ccc(-c2ccc3c(c2)[nH]c2ccncc23)cn1 [AV-1451] | 1.17 | choroidal plexus and substantia nigra; also recorded: cerebral white matter and basal ganglia region | 18.55(12.28)^ | .90(1.46) | 9.4(10.83)^+ | 7.86(7.44)^+ | 5.32(7.70)^ | 5.59(8.23)^+ | 10.2(15.2)^+ | 20.72(20.48)*^+ | −0.73(0.43) | 28.14(11.42) | .83(1.45) | 1.85(3.24) | 2.65(3.64) | 0.78(1.43) | 0.54(1.58) | 0.95(3.21) | 5.44(11.10) | −1.00(0.45) | regions with off-target binding ([2]; listed as AV1451): cerebellum; increase of cerebellar GM SUVP in AD comparing to NL ([3]; AD vs NL): 37% |
